Assays:
S. aureus = assay: Anti-microbial zone of inhibition on Mueller-Hinton agar; assay type: cell-based; set-up: key: ‘+++’ indicates a bioactivity comparable to the positive control; ‘−’ indicates no bioactivity; conditions: positive control, solution on sterile filter paper disc
Experimental: Plates of Mueller-Hinton agar were prepared and streaked with 100 μL of 10^8 S. aureus and left to dry for 5-10 minutes. Using sterile technique, discs were transferred to the plates and the plates incubated for 24 hours at 35° C. After 24 hours, plates were digitally imaged and the anti-microbial zone of inhibition around each of the discs was scored relative to the positive control.

[1] = tested on: FHV-1: Felid herpesvirus type 1 (Herpesviridae); assay: Viral inactivation in scaled-down manufacturing process; conditions: 0.3% PAA/5% Ethanol in PBS
Experimental: (§1) A study was undertaken to examine viral inactivation during the STOF processes and PAA treatment using three model viruses.
(§2) The level of viral inactivation was tested using a scaled-down manufacturing process. This involved spiking high-titre viral stocks of each of the three model viruses into samples representing two different stages of the manufacturing process, and subjecting these spiked samples to a treatment analogous to the corresponding manufacturing step. The level of virus inactivation during each treatment was determined by comparing the viral titres recovered from the spiked samples after each treatment, with viral recovery from untreated samples.
(§3) The model viruses were chosen to include viruses with different physio-chemical characteristics, such as the presence or absence of envelope, type of nucleic acid genome (DNA or RNA) and survival in the environment/resistance to disinfection (Table 22). The amount of infectious virus present in samples was determined by end-point titration and viral titres were expressed as tissue culture infective dose, 50% (TCID50).

[2] = tested on: BEV: Bovine enterovirus (Picornaviridae); assay: as above; conditions: 0.3% PAA/5% Ethanol in PBS
Experimental: as §1, §2, §3

[3] = tested on: PI-3: Parainfluenza virus type 3 (Paramyxoviridae); conditions: 0.3% PAA/5% Ethanol in PBS
Experimental: as §1, §2, §3

PC12 cells = assay: PC12 cell differentiation by growth factor released from laminates; assay type: cell-based; conditions: growth factor solution control (50 ng/disc); 48 hours
Experimental: Specifically, a collagen gel was prepared as described in Example 3. Once formed the gel was spiked with either human recombinant FGF2 or NGF. Sterile FM scaffold sheets were cut to 8 mm discs, and growth factor spiked collagen gel (10 μL) was applied to one surface. A second FM scaffold disc was applied to the collagen layer to create a laminate sandwich (i.e., FM scaffold/bioactive collagen polymer/FM scaffold). The bioactive FM scaffold laminates were dehydrated at 25° C. for 2 hours to yield a bonded laminate. The FM laminates were produced with FGF2 or NGF at either 0, 250 or 500 ng/disc. The bioactive FM scaffolds were incubated at 37° C. for 24 hours in DMEM (1 mL) to extract the bound growth factor prior to application to a cell monolayer. PC12 cells were seeded onto 24-well plates at 20 k cells/well in DMEM (1 mL) and incubated for 24 hours at 37° C. Media was removed from the cells and replaced with DMEM (1 mL) that had been incubated with the bioactive FM scaffold laminates. Positive control cells were treated with a solution of either FGF2 or NGF at 50 ng/mL final concentration. Cells were incubated for 48 hours. […] Total cells were counted per frame, as well as the total number of cell processes per frame. […] Growth factor stimulated cell differentiation was expressed as the number of cell processes per cell per frame. Results are expressed as Table 19. […]

`C[C@H]1c2cccc(O)c2C(=O)C2=C(O)[C@]3(O)C(=O)C(C(N)=O)=C(O)[C@@H](N(C)C)[C@@H]3[C@@H](O)[C@@H]21` [Doxycycline] was tested, and the Antibacterial score (S. aureus; 30 μg/disc) was “+++”.
For `CC(=O)OO` [PAA, peracetic acid], the “PAA Inactivation” value [1] was “≧2.6 log TCID50”, the “PAA Inactivation” value [2] was 7.3 log TCID50 and the “PAA Inactivation” value [3] was “≧2.3 log TCID50”.
poly-L-lysine was tested, and the Antibacterial score (S. aureus; 5 μg/disc) was “+++”.
In the case of “rhFGF2: human recombinant FGF2 solution, positive control”, the “Relative cell response (cell processes per cell per frame)” value (PC12 cells) was 0.72 ± 0.02.
With rhNGF: NGF solution, positive control the “Relative cell response (cell processes per cell per frame)” value (PC12 cells) was 0.73 ± 0.01.

Source: patent US8758781B2, “Tissue scaffolds derived from forestomach extracellular matrix” (Mesynthes Ltd., priority 2008, dated 2014)
